Where two headings read alike, the source gives them in different places.
Experiments:
M4 muscarinic receptor = biological target: T1, M4 muscarinic receptor (Homo sapiens, UniProt P08173); experiment: Functional mobilization of intracellular calcium (FLIPR, Fluo-3), M4-CHO cells; assay type: cell-based; conditions: for Emax: read-out: M4 Efficacy
T1 construct: expressed in transfected cells; host or cells: CHO cells (M4-CHO, under puromycin, zeocin and blasticidin selection)
T1 sequence (P08173 1-479): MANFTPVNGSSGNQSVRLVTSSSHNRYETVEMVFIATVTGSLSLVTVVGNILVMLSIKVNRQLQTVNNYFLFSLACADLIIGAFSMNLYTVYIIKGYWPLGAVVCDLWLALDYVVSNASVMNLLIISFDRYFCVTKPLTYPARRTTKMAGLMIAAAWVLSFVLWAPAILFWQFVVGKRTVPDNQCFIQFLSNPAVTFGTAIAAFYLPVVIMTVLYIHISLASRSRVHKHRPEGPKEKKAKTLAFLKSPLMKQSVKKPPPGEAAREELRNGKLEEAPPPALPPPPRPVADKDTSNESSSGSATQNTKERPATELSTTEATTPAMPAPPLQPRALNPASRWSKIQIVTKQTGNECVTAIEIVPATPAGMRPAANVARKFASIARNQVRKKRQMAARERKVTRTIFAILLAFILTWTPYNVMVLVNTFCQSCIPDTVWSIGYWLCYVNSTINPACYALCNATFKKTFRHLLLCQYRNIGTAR
Method in brief: (§1)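 CHO lines stably carrying the muscarinic subtype, dye-loaded with Fluo-3 at 37° C for 60-90 min, receive test compound in 0.5% DMSO. Agonist effects are read directly; antagonist effects against carbachol at EC80 after 15 min pre-incubation.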

M1 muscarinic receptor = biological target: T2, M1 muscarinic receptor (Homo sapiens, UniProt P11229); experiment: Functional mobilization of intracellular calcium (FLIPR, Fluo-3), M1-CHO cells; assay type: cell-based; conditions: for Emax: read-out: M1 Efficacy
T2 construct: expressed in transfected cells; host or cells: CHO cells (M1-CHO, under zeocin and G418 selection)
T2 sequence (P11229 1-460): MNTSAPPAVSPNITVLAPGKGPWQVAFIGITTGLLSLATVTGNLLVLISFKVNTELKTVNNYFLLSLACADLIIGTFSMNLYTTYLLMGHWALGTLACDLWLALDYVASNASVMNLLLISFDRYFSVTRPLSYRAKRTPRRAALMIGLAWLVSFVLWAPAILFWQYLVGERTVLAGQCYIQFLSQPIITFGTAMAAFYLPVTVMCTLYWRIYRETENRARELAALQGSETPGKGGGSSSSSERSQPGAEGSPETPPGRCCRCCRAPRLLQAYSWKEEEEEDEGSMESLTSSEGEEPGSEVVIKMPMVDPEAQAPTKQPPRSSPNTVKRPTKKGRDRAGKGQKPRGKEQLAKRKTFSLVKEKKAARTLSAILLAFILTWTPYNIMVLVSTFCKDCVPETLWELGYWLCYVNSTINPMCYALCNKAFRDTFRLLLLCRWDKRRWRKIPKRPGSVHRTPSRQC
Method in brief: as §1

[1] = compound nos. 1-454, 100% efficacy is the maximum response obtained with the Carbachol control
[2] = compound nos. 455-509, 100% efficacy is the maximum response obtained with the Carbachol control

| Compound | M4 Activity (M4 muscarinic receptor; compound nos. 1-454) | Emax (M4 muscarinic receptor; [1]) [%] | M1 Activity (M1 muscarinic receptor; compound nos. 1-454) | Emax (M1 muscarinic receptor; [1]) [%] | M4 Efficacy (M4 muscarinic receptor; [1]) | M1 Efficacy (M1 muscarinic receptor; [1]) | Emax (M4 muscarinic receptor; [2]) [%] | M4 Activity (M4 muscarinic receptor; compounds 455-509) | Emax (M1 muscarinic receptor; [2]) [%] | M1 Activity (M1 muscarinic receptor; compounds 455-509) |
| --- | --- | --- | --- | --- | --- | --- | --- | --- | --- | --- |
| CN(C)C(=O)N1CC2(CCN(C3CCN(c4ccccc4F)CC3)CC2)c2cc(F)ccc21 [compound 437] | ++ (activity was measured to be between 0.1 μM and 4.0 μM) | < 55 | ++ (activity was measured to be between 0.7 μM and 3.0 μM) | 65 to 85 |  |  |  |  |  |  |
| CN(C)C(=O)N1CC2(CCN(C3CCN(c4cccc(F)c4)CC3)CC2)c2cc(F)ccc21 [compound 438] | +++ (activity was measured to be less than or equal to 0.1 μM) | 55 to 70 | ++ (activity was measured to be between 0.7 μM and 3.0 μM) | 65 to 85 |  |  |  |  |  |  |
| CN(C)C(=O)N1CC2(CCN(C3CCN(c4ccc(F)cc4)CC3)CC2)c2cc(F)ccc21 [compound 439] | +++ (activity was measured to be less than or equal to 0.1 μM) | < 55 | ++ (activity was measured to be between 0.7 μM and 3.0 μM) | 65 to 85 |  |  |  |  |  |  |
| COc1ccccc1N1CCC(N2CCC3(CC2)CN(C(=O)N(C)C)c2ccc(F)cc23)CC1 [compound 440] | ++ (activity was measured to be between 0.1 μM and 4.0 μM) | 55 to 70 | ++ (activity was measured to be between 0.7 μM and 3.0 μM) | 65 to 85 |  |  |  |  |  |  |
| COc1cccc(N2CCC(N3CCC4(CC3)CN(C(=O)N(C)C)c3ccc(F)cc34)CC2)c1 [compound 441] | +++ (activity was measured to be less than or equal to 0.1 μM) | 55 to 70 | ++ (activity was measured to be between 0.7 μM and 3.0 μM) | 65 to 85 |  |  |  |  |  |  |
| COc1ccc(N2CCC(N3CCC4(CC3)CN(C(=O)N(C)C)c3ccc(F)cc34)CC2)cc1 [compound 442] | ++ (activity was measured to be between 0.1 μM and 4.0 μM) | 55 to 70 | ++ (activity was measured to be between 0.7 μM and 3.0 μM) | 65 to 85 |  |  |  |  |  |  |
| COc1ccc(F)cc1N1CCC(N2CCC3(CC2)CN(C(=O)N(C)C)c2ccc(F)cc23)CC1 [compound 443] | ++ (activity was measured to be between 0.1 μM and 4.0 μM) | 55 to 70 | ++ (activity was measured to be between 0.7 μM and 3.0 μM) | 65 to 85 |  |  |  |  |  |  |
| CN(C)C(=O)N1CC2(CCN(C3CCN(c4cnccn4)CC3)CC2)c2cc(F)ccc21 [compound 444] | +++ (activity was measured to be less than or equal to 0.1 μM) | 55 to 70 | +++ (activity was measured to be less than or equal to 0.7 μM) | 65 to 85 |  |  |  |  |  |  |
| CN(C)C(=O)N1CC2(CCN(C3CCN(c4ncccn4)CC3)CC2)c2cc(F)ccc21 [compound 445] | +++ (activity was measured to be less than or equal to 0.1 μM) | 55 to 70 | ++ (activity was measured to be between 0.7 μM and 3.0 μM) | 65 to 85 |  |  |  |  |  |  |
| CN(C)C(=O)N1CC2(CCN(C3CCN(c4cncnc4)CC3)CC2)c2cc(F)ccc21 [compound 446] | +++ (activity was measured to be less than or equal to 0.1 μM) | 55 to 70 | ++ (activity was measured to be between 0.7 μM and 3.0 μM) | 65 to 85 |  |  |  |  |  |  |
| CN(C)C(=O)N1CC2(CCN(C3CCN(c4nccs4)CC3)CC2)c2cc(F)ccc21 [compound 447] | +++ (activity was measured to be less than or equal to 0.1 μM) | 55 to 70 | +++ (activity was measured to be less than or equal to 0.7 μM) | 65 to 85 |  |  |  |  |  |  |
| CN(C)C(=O)N1CC2(CCN(CC3CCN(c4cnccn4)C3)CC2)c2cc(F)ccc21 (centres unmarked) [compound 448] | +++ (activity was measured to be less than or equal to 0.1 μM) | 55 to 70 | +++ (activity was measured to be less than or equal to 0.7 μM) | > 85 |  |  |  |  |  |  |
| CN(C)C(=O)N1CC2(CCN(CC3CCN(c4cnccn4)C3)CC2)c2cc(F)ccc21 (centres unmarked) [compound 449] | +++ (activity was measured to be less than or equal to 0.1 μM) |  | +++ (activity was measured to be less than or equal to 0.7 μM) |  | ++ (efficacy was calculated to be between 70% and 55%) | ++ (efficacy was calculated to be between 85% and 65%) |  |  |  |  |
| CN(C)C(=O)N1CC2(CCN(CC3CCN(c4nccs4)C3)CC2)c2cc(F)ccc21 (centres unmarked) [compound 450] | +++ (activity was measured to be less than or equal to 0.1 μM) | 55 to 70 | ++ (activity was measured to be between 0.7 μM and 3.0 μM) | 65 to 85 |  |  |  |  |  |  |
| CN(C)C(=O)N1CC2(CCN(CC3CCN(c4nccs4)C3)CC2)c2cc(F)ccc21 (centres unmarked) [compound 451] | +++ (activity was measured to be less than or equal to 0.1 μM) |  | ++ (activity was measured to be between 0.7 μM and 3.0 μM) |  |  |  |  |  |  |  |
| CN(C)C(=O)N1CC2(CCN(C3CCN(c4ccccn4)CC3)CC2)c2cc(F)ccc21 [compound 452] | +++ (activity was measured to be less than or equal to 0.1 μM) | 55 to 70 | ++ (activity was measured to be between 0.7 μM and 3.0 μM) | 65 to 85 |  |  |  |  |  |  |
| CN(C)C(=O)N1CC2(CCN(C3CCN(c4cccnc4)CC3)CC2)c2cc(F)ccc21 [compound 453] | +++ (activity was measured to be less than or equal to 0.1 μM) | 55 to 70 | +++ (activity was measured to be less than or equal to 0.7 μM) | 65 to 85 |  |  |  |  |  |  |
| CCc1nsc(N2CCC(N3CCC4(CCN(C(=O)N(C)C)c5ccccc54)CC3)CC2)n1 [compound 455] |  |  |  |  |  |  | 25 to 100 | ++ (activity was measured to be between 2.0 μM and 5.0 μM) | > 100 | +++ (activity was measured to be less than or equal to 2.0 μM) |
| CC(=O)N1CCC2(CCN(C3CCN(c4cnc5ccccc5n4)CC3)CC2)c2ccccc21 [compound 456] |  |  |  |  |  |  | 25 to 100 | ++ (activity was measured to be between 2.0 μM and 5.0 μM) | > 100 | ++ (activity was measured to be between 2.0 μM and 5.0 μM) |
| CN(C)C(=O)N1CCC2(CCN(C3CCN(c4cnccn4)CC3)CC2)c2ccccc21 [compound 457] |  |  |  |  |  |  | 25 to 100 | ++ (activity was measured to be between 2.0 μM and 5.0 μM) | > 100 | +++ (activity was measured to be less than or equal to 2.0 μM) |
| Cc1nsc(N2CCC(N3CCC4(CC3)CN(C(=O)N(C)C)c3ccccc34)CC2)n1 [compound 458] |  |  |  |  |  |  | > 100 | ++ (activity was measured to be between 2.0 μM and 5.0 μM) | > 100 | +++ (activity was measured to be less than or equal to 2.0 μM) |
| CCCc1cnc(N2CCC(N3CCC4(CC3)CN(C(=O)N(C)C)c3ccccc34)CC2)cn1 [compound 459] |  |  |  |  |  |  | 25 to 100 | ++ (activity was measured to be between 2.0 μM and 5.0 μM) | > 100 | ++ (activity was measured to be between 2.0 μM and 5.0 μM) |
| CN(C)C(=O)N1CC2(CCN(C3CCN(c4cnc5ccccc5n4)CC3)CC2)c2cc(F)ccc21 [compound 460] |  |  |  |  |  |  | 25 to 100 | ++ (activity was measured to be between 2.0 μM and 5.0 μM) | > 100 | +++ (activity was measured to be less than or equal to 2.0 μM) |
| Cc1ncc(N2CCC(N3CCC4(CCN(C(=O)N(C)C)c5ccccc54)CC3)CC2)nc1C [compound 461] |  |  |  |  |  |  | 25 to 100 | ++ (activity was measured to be between 2.0 μM and 5.0 μM) | > 100 | ++ (activity was measured to be between 2.0 μM and 5.0 μM) |
| Cc1ccc(N2CCC(N3CCC4(CC3)CN(C(=O)N(C)C)c3ccc(F)cc34)CC2)nn1 [compound 462] |  |  |  |  |  |  | < 25 | ++ (activity was measured to be between 2.0 μM and 5.0 μM) | 25 to 100 | + (activity was measured to be greater than or equal to 5.0 μM) |

Source: patent US7858635B2 (priority 2005, dated 2010)
